Measurements published in patent publication US7371766B2, “Curcumin analogs with anti-tumor and anti-angiogenic properties” (Emory University, priority 1999, dated 2008).

Tests used:
MCF-7 = conditions: 48 hours
OVCAR-3 = conditions: 48 hours
HT29 = conditions: 48 hours
U251 = conditions: 48 hours
SNB-75 = conditions: 48 hours
IGROV1 = conditions: 48 hours
HCT-116 = conditions: 48 hours
HCT-15 = conditions: 48 hours
A549 = conditions: 48 hours
SW-620 = conditions: 48 hours
OVCAR-5 = conditions: 48 hours
MDA-MB-231 = conditions: 48 hours
M14 = conditions: 48 hours
NCI-H460 = conditions: 48 hours
DU-145 = conditions: 48 hours
CAKI-1 = conditions: 48 hours
A498 = conditions: 48 hours
UO-31 = conditions: 48 hours
BT-549 = conditions: 48 hours
MOLT-4 = conditions: 48 hours
NCI-H522 = conditions: 48 hours
[1] = read-out: Median Growth Inhibitory Concentration (GI50), Breast Cancer, 48 hours
[2] = read-out: Median Lethal Concentration (LC50), Breast Cancer, 48 hours, SRB assay
[3] = read-out: Median Growth Inhibitory Concentration (GI50), Renal Cancer, 48 hours
[4] = read-out: Median Lethal Concentration (LC50), Renal Cancer, 48 hours, SRB assay

O=C1C(=Cc2ccccc2O)COCC1=Cc1ccccc1O [EF25, 3,5-Bis(2-hyrdoxybenzylidene)tetrahydro4-H-pyran4-one]
GI50 (MCF-7; read-out: Median Growth Inhibitory Concentration (GI50), MCF-7, Breast Cancer): 0.3 µM
CC50 (MCF-7; read-out: Median Lethal Concentration (LC50), Breast Cancer, MCF-7, SRB assay): 44.7 µM
GI50 (OVCAR-3; read-out: Median Growth Inhibitory Concentration (GI50), OVCAR-3, Ovarian Cancer): 0.9 µM
CC50 (OVCAR-3; read-out: Median Lethal Concentration (LC50), Ovarian Cancer, OVCAR-3, SRB assay): 23.5 µM
GI50 (HT29; read-out: Median Growth Inhibitory Concentration (GI50), HT29, Colon Cancer): 2 µM
CC50 (HT29; read-out: Median Lethal Concentration (LC50), Colon Cancer, HT29, SRB assay): 67.5 µM
GI50 (U251; read-out: Median Growth Inhibitory Concentration (GI50), U251, CNS Cancer): 0.7 µM
CC50 (U251; read-out: Median Lethal Concentration (LC50), CNS Cancer, U251, SRB assay): 5.8 µM
GI50 (SNB-75; read-out: Median Growth Inhibitory Concentration (GI50), SNB-75, CNS Cancer): 1.8 µM
CC50 (SNB-75; read-out: Median Lethal Concentration (LC50), CNS Cancer, SNB-75, SRB assay): 14 µM
GI50 (T-47D; [1]): 1.3 µM
CC50 (T-47D; [2]): 92.9 µM
GI50 (SN12C; [3]): 1.4 µM
CC50 (SN12C; [4]): 12 µM
GI50 (IGROV1; read-out: Median Growth Inhibitory Concentration (GI50), IGROV1, Ovarian Cancer): 0.8 µM
CC50 (IGROV1; read-out: Median Lethal Concentration (LC50), Ovarian Cancer, IGROV1, SRB assay): 14.5 µM
GI50 (SR; read-out: Median Growth Inhibitory Concentration (GI50), Leukemia, 48 hours): 0.2 µM
CC50 (SR; read-out: Median Lethal Concentration (LC50), Leukemia, 48 hours, SRB assay): 76.3 µM
GI50 (MALME-3M; read-out: Median Growth Inhibitory Concentration (GI50), Melanoma, 48 hours): 1.9 µM
CC50 (MALME-3M; read-out: Median Lethal Concentration (LC50), Melanoma, 48 hours, SRB assay): 19.3 µM
GI50 (HCT-116; read-out: Median Growth Inhibitory Concentration (GI50), HCT-116, Colon Cancer): 0.8 µM
CC50 (HCT-116; read-out: Median Lethal Concentration (LC50), Colon Cancer, HCT-116, SRB assay): 11.1 µM
GI50 (HCT-15; read-out: Median Growth Inhibitory Concentration (GI50), HCT-15, Colon Cancer): 0.7 µM
CC50 (HCT-15; read-out: Median Lethal Concentration (LC50), Colon Cancer, HCT-15, SRB assay): 16.1 µM
GI50 (A549; read-out: Median Growth Inhibitory Concentration (GI50), A549, Non-Small Cell Lung Cancer): 2.5 µM
CC50 (A549; read-out: Median Lethal Concentration (LC50), Non-Small Cell Lung Cancer, A549, SRB assay): 71.8 µM
GI50 (SW-620; read-out: Median Growth Inhibitory Concentration (GI50), SW-620, Colon Cancer): 0.5 µM
CC50 (SW-620; read-out: Median Lethal Concentration (LC50), Colon Cancer, SW-620, SRB assay): 75.3 µM
GI50 (OVCAR-5; read-out: Median Growth Inhibitory Concentration (GI50), OVCAR-5, Ovarian Cancer): 1.7 µM
CC50 (OVCAR-5; read-out: Median Lethal Concentration (LC50), Ovarian Cancer, OVCAR-5, SRB assay): 8.4 µM
GI50 (MDA-MB-231; read-out: Median Growth Inhibitory Concentration (GI50), MDA-MB-231, Breast Cancer): 1.9 µM
CC50 (MDA-MB-231; read-out: Median Lethal Concentration (LC50), Breast Cancer, MDA-MB-231, SRB assay): 17.2 µM
GI50 (M14; read-out: Median Growth Inhibitory Concentration (GI50), M14, Melanoma): 1.8 µM
CC50 (M14; read-out: Median Lethal Concentration (LC50), Melanoma, M14, SRB assay): 19.4 µM
GI50 (NCI-H460; read-out: Median Growth Inhibitory Concentration (GI50), NCI-H460, Non-Small Cell Lung Cancer): 1.2 µM
CC50 (NCI-H460; read-out: Median Lethal Concentration (LC50), Non-Small Cell Lung Cancer, NCI-H460, SRB assay): 38.9 µM
GI50 (HS 578T; [1]): 5.1 µM
CC50 (HS 578T; [2]): 72.3 µM
GI50 (DU-145; read-out: Median Growth Inhibitory Concentration (GI50), DU-145, Prostate Cancer): 1.2 µM
CC50 (DU-145; read-out: Median Lethal Concentration (LC50), Prostate Cancer, DU-145, SRB assay): 20.1 µM
GI50 (CAKI-1; read-out: Median Growth Inhibitory Concentration (GI50), CAKI-1, Renal Cancer): 1.8 µM
CC50 (CAKI-1; read-out: Median Lethal Concentration (LC50), Renal Cancer, CAKI-1, SRB assay): 53.7 µM
GI50 (A498; read-out: Median Growth Inhibitory Concentration (GI50), A498, Renal Cancer): 1.3 µM
CC50 (A498; read-out: Median Lethal Concentration (LC50), Renal Cancer, A498, SRB assay): 6 µM
GI50 (UO-31; read-out: Median Growth Inhibitory Concentration (GI50), UO-31, Renal Cancer): 1.2 µM
CC50 (UO-31; read-out: Median Lethal Concentration (LC50), Renal Cancer, UO-31, SRB assay): 68.1 µM
GI50 (ACHN; [3]): 1.5 µM
CC50 (ACHN; [4]): 18.2 µM
GI50 (BT-549; read-out: Median Growth Inhibitory Concentration (GI50), BT-549, Breast Cancer): 1.5 µM
CC50 (BT-549; read-out: Median Lethal Concentration (LC50), Breast Cancer, BT-549, SRB assay): 13.6 µM
GI50 (MOLT-4; read-out: Median Growth Inhibitory Concentration (GI50), MOLT-4, Leukemia): 0.4 µM
CC50 (MOLT-4; read-out: Median Lethal Concentration (LC50), Leukemia, MOLT-4, SRB assay): > 100 µM
GI50 (NCI-H522; read-out: Median Growth Inhibitory Concentration (GI50), NCI-H522, Non-Small Cell Lung Cancer): 0.9 µM
CC50 (NCI-H522; read-out: Median Lethal Concentration (LC50), Non-Small Cell Lung Cancer, NCI-H522, SRB assay): 14.1 µM
